According to US8106055B2, “Substituted amide compounds” (Gruenenthal GmbH, priority 2007, dated 2012):

The molecules below were run against T1, human μ opiate receptor (Homo sapiens, UniProt P35372) (assay: Affinity for the human μ opiate receptor ([3H]-naloxone displacement, CHO-K1 receptor membrane preparation, SPA)). Settings: 1.5 h, Table 2; test concentration 1 μM; read-out: μ receptor.
T1 construct: purchased PerkinElmer Life Sciences, Zaventem, Belgium RB-HOM; host or cells: CHO-K1 cells (membrane preparation)
T1 sequence (P35372 whole entry): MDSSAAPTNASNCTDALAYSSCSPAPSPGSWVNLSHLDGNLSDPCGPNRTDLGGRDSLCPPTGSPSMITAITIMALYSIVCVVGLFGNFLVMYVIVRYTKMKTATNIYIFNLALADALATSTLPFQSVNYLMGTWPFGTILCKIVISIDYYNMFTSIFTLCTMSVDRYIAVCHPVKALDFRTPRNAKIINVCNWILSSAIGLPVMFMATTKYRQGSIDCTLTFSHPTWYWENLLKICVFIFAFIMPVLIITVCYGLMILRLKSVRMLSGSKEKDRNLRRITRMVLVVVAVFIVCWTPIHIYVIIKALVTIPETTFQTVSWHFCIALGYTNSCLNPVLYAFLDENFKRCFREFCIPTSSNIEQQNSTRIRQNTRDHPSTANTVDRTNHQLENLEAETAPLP
Format: binding
Method in brief: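 SPA, CHO-K1 hμ membranes; 1 nmol/l [3H]-naloxone; Tris-HCl 50 mmol/l + 0.06% BSA; 90 min RT; NSB with 100 μmol/l naloxone; β-counting. Readout: % inhibition of specific binding at 1 μM test compound.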

| Compound | inhibition at 1 µM [%] |
| --- | --- |
| CN(C)C(c1ccccc1)C1CCC(NC(=O)COC2CCCN(S(=O)(=O)c3c(Cl)cc(Cl)cc3Cl)C2)CC1 (stereo not shown) [Example 608, N-[4-(dimethylaminophenylmethyl)-cyclohexyl]-2-[1-(2,4,6-trichlorobenzenesulfonyl)-piperidin-3-yloxy]-acetamide] | 89 |
| O=C(COCCN(C1CC1)S(=O)(=O)c1c(Cl)cc(Cl)cc1Cl)NC1CCC(C(c2ccccc2)N2CCCC2)CC1 (stereo not shown) [Example 603, 2-{2-[cyclopropyl-(2,4,6-trichlorobenzenesulfonyl)-amino]-ethoxy}-N-[4-(phenylpyrrolidin-1-ylmethyl)-cyclohexyl]-acetamide] | 45 |
| CN(C)C(c1ccccc1)C1CCC(NC(=O)COC2CCN(S(=O)(=O)c3c(Cl)cc(Cl)cc3Cl)C2)CC1 (stereo not shown) [Example 609, N-[4-(dimethylaminophenylmethyl)-cyclohexyl]-2-[1-(2,4,6-trichlorobenzenesulfonyl)-pyrrolidin-3-yloxy]-acetamide] | 94 |
| CN(C)C(c1ccccc1)C1CCC(NC(=O)COCCN(C)S(=O)(=O)c2c(Cl)cc(Cl)cc2Cl)C1 (stereo not shown) [Example 615, N-[3-(dimethylaminophenylmethyl)-cyclopentyl]-2-{2-[(2,4,6-trichlorobenzenesulfonyl)-methylamino]-ethoxy}-acetamide] | 89 |

Same assay, conditions: Table 2; test concentration 1 μM

| Compound | μ receptor [% inhibition] |
| --- | --- |
| CN(C)C(c1ccccc1)C1CCC(NC(=O)COCC2CCCN2S(=O)(=O)c2c(Cl)cc(Cl)cc2Cl)CC1 (stereo not shown) [Example 613, N-[4-(Dimethylaminophenylmethyl)-cyclohexyl]-2-[1-(2,4,6-trichlorobenzenesulfonyl)-pyrrolidin-2-ylmethoxy]-acetamide] | 90 |

Same assay, conditions: test concentration of 1 μM

| Compound | μ (binding on the μ opioid receptor, % inhibition) [%] |
| --- | --- |
| COc1ccc(S(=O)(=O)N2CCCC2COCC(=O)NCCC2CCC(C(c3cccc(F)c3)N(C)C)CC2)cc1 (stereo not shown) [Example 224] | 85 |
| Cc1cc(C)c(S(=O)(=O)N2CCC(OCC(=O)NCCC3CCC(C(c4cccc(F)c4)N(C)C)CC3)C2)c(C)c1 (stereo not shown) [Example 264] | 77 |
| CCN(CCOCC(=O)NCC1CCC(C(c2ccccc2)N(C)C)CC1)S(=O)(=O)c1c(C)cc(OC)c(C)c1C (stereo not shown) [Example 231] | 82 |
| CN(C)C(c1cccc(F)c1)C1CCC(NC(=O)COCC2CCCN(S(=O)(=O)c3ccccc3)C2)CC1 (stereo not shown) [Example 266] | 74 |
| CN(C)C(c1ccc(Cl)cc1)C1CCC(CNC(=O)COC2CCCCC2N(C)S(=O)(=O)c2ccc(Cl)c(Cl)c2)CC1 (stereo not shown) [Example 269] | 74 |
| CN(C)C(c1ccc(Cl)cc1)C1CCC(CNC(=O)COCCN(C)S(=O)(=O)c2ccc(F)cc2)CC1 (stereo not shown) [Example 263] | 72 |
| COc1cc(C)c(S(=O)(=O)N2CCC(OCC(=O)NCCC3CCC(C(c4cccc(F)c4)N(C)C)CC3)CC2)c(C)c1C (stereo not shown) [Example 232] | 78 |
| CN(C)C(c1cccc(F)c1)C1CCC(CNC(=O)COC2CCN(S(=O)(=O)c3ccc(Cl)cc3)C2)CC1 (stereo not shown) [Example 258] | 80 |
| CN(C)C(c1cccc(F)c1)C1CCC(CNC(=O)COC2CCN(S(=O)(=O)c3ccc(F)cc3)C2)CC1 (stereo not shown) [Example 275] | 71 |
| CN(C)C(c1ccccc1)C1CCC(CNC(=O)COCC2CCCN(S(=O)(=O)c3ccccc3)C2)CC1 (stereo not shown) [Example 129, N((4((dimethylamino)(phenyl)methyl)cyclohexyl)methyl)-2-((1-(phenylsulfonyl)piperidin-3-yl)methoxy)acetamide] | 89 |
| COc1ccc(S(=O)(=O)N2CCCCC2CCOCC(=O)NC2CCC(C(c3ccc(F)cc3)N(C)C)CC2)cc1 (stereo not shown) [Example 212] | 80 |
| COc1cc(C)c(S(=O)(=O)N2CCC(OCC(=O)NCCC3CCC(C(c4cccc(F)c4)N(C)C)CC3)C2)c(C)c1C (stereo not shown) [Example 253] | 76 |
| COc1ccc(S(=O)(=O)N(C)CCOCC(=O)NC2CCC(C(c3cccc(F)c3)N(C)C)CC2)cc1 (stereo not shown) [Example 250] | 70 |
| Cc1cc(C)c(S(=O)(=O)N(C)CCOCC(=O)NC2CCC(C(c3cccs3)N(C)C)CC2)c(C)c1 (stereo not shown) [Example 235] | 76 |
| CN(C)C(c1cccc(F)c1)C1CCC(CCNC(=O)COCC2CCCN2S(=O)(=O)c2ccc(Cl)c(Cl)c2)CC1 (stereo not shown) [Example 202] | 85 |
| Cc1ccc(S(=O)(=O)N(C)CCOCC(=O)NCC2CCC(C(c3ccc(Cl)cc3)N(C)C)CC2)cc1 (stereo not shown) [Example 273] | 68 |
| COc1cc(C)c(S(=O)(=O)N2CCN(CCOCC(=O)NC3CCC(C(c4ccc(F)cc4)N(C)C)CC3)CC2)c(C)c1C (stereo not shown) [Example 222] | 77 |
| CN(C)C(c1cccc(F)c1)C1CCC(NC(=O)COC2CCCN(S(=O)(=O)c3ccccc3)C2)CC1 (stereo not shown) [Example 277] | 68 |
| CN(C)C(c1cccc(F)c1)C1CCC(CNC(=O)COCCN(C)S(=O)(=O)c2ccc(F)cc2)CC1 (stereo not shown) [Example 229] | 79 |
| COc1cc(C)c(S(=O)(=O)N(CCOCC(=O)NCC2CCC(C(c3ccccc3)N(C)C)CC2)Cc2ccccc2)c(C)c1C (stereo not shown) [Example 201] | 88 |
| COc1cc(C)c(S(=O)(=O)N2CCN(CCOCC(=O)NCC3CCC(C(c4cccc(F)c4)N(C)C)CC3)CC2)c(C)c1C (stereo not shown) [Example 223] | 77 |
| COc1ccc(S(=O)(=O)N2CCCCC2CCOCC(=O)NCC2CCC(C(c3cccc(F)c3)N(C)C)CC2)cc1 (stereo not shown) [Example 203] | 83 |
| CN(C)C(c1ccc(F)cc1)C1CCC(NC(=O)COC2CCCCC2N(C)S(=O)(=O)c2ccc(Cl)c(Cl)c2)CC1 (stereo not shown) [Example 256] | 73 |
| CN(C)C(c1ccc(F)cc1)C1CCC(CNC(=O)COCC2CCCN2S(=O)(=O)c2ccc(Cl)c(Cl)c2)CC1 (stereo not shown) [Example 267] | 73 |

| Compound | μ (binding on the μ opioid receptor, % inhibition) [%] |
| --- | --- |
| CN(C)C(c1ccc(F)cc1)C1CCC(CCNC(=O)COC2CCCCC2N(C)S(=O)(=O)c2ccc(Cl)c(Cl)c2)CC1 (stereo not shown) [Example 244] | 81 |
| CN(C)C(c1cccc(F)c1)C1CCC(CNC(=O)COC2CCN(S(=O)(=O)c3ccc(Cl)cc3Cl)C2)CC1 (stereo not shown) [Example 225] | 83 |
| Cc1ccc(S(=O)(=O)N(C)CCOCC(=O)NC2CCC(C(c3cccc(F)c3)N(C)C)CC2)cc1 (stereo not shown) [Example 226] | 74 |
| COc1ccc(S(=O)(=O)N2CCCC2COCC(=O)NC2CCC(C(c3cccc(F)c3)N(C)C)CC2)cc1 (stereo not shown) [Example 268] | 70 |
| COc1ccc(S(=O)(=O)N2CCCCC2COCC(=O)NC2CCC(C(c3cccs3)N(C)C)CC2)cc1 (stereo not shown) [Example 243] | 79 |
| Cc1ccc(S(=O)(=O)N2CCC(OCC(=O)NCCC3CCC(C(c4cccs4)N(C)C)CC3)C2)cc1 (stereo not shown) [Example 272] | 73 |
| CN(C)C(c1cccc(F)c1)C1CCC(NC(=O)COCCN(C)S(=O)(=O)c2ccc(OC(F)(F)F)cc2)CC1 (stereo not shown) [Example 246] | 76 |
| CN(C)C(c1ccccc1)C1CCC(CNC(=O)COC2CCN(S(=O)(=O)c3ccc(F)cc3)C2)CC1 (stereo not shown) [Example 219] | 82 |
| CN(C)C(c1cccc(F)c1)C1CCC(NC(=O)COCC2CCCN2S(=O)(=O)c2ccc(Cl)c(Cl)c2)CC1 (stereo not shown) [Example 211] | 83 |
| CN(C)C(c1ccc(Cl)cc1)C1CCC(CNC(=O)COCCN(C)S(=O)(=O)c2c(Cl)cccc2Cl)CC1 (stereo not shown) [Example 207] | 77 |
| Cc1ccc(S(=O)(=O)N2CCC(OCC(=O)NCCC3CCC(C(c4cccc(F)c4)N(C)C)CC3)C2)cc1 (stereo not shown) [Example 216] | 72 |
| COc1cc(C)c(S(=O)(=O)N2CCC(OCC(=O)NCC3CCC(C(c4cccc(F)c4)N(C)C)CC3)C2)c(C)c1C (stereo not shown) [Example 252] | 82 |
| COc1ccc(S(=O)(=O)N(C)CCOCC(=O)NC2CCC(C(c3cccs3)N(C)C)CC2)cc1OC (stereo not shown) [Example 206] | 78 |
| CN(C)C(c1cccc(F)c1)C1CCC(NC(=O)COCCN(C)S(=O)(=O)c2ccc(F)cc2)CC1 (stereo not shown) [Example 205] | 76 |
| COc1ccc(S(=O)(=O)N2CCC(OCC(=O)NCC3CCC(C(c4ccc(Cl)cc4)N(C)C)CC3)C2)cc1OC (stereo not shown) [Example 260] | 76 |
| CN(C)C(c1ccc(F)cc1)C1CCC(CNC(=O)COCCN(C)S(=O)(=O)c2ccc(Cl)cc2Cl)CC1 (stereo not shown) [Example 249] | 70 |
| CN(C)C(c1cccc(F)c1)C1CCC(CCNC(=O)COC2CCN(S(=O)(=O)c3ccc(Cl)cc3)C2)CC1 (stereo not shown) [Example 247] | 75 |
| COc1cc(C)c(S(=O)(=O)N(CCOCC(=O)NCCC2CCC(C(c3cccs3)N(C)C)CC2)Cc2ccccc2)c(C)c1C (stereo not shown) [Example 254] | 83 |
| COc1ccc(S(=O)(=O)N2CCC(OCC(=O)NCCC3CCC(C(c4cccc(F)c4)N(C)C)CC3)C2)cc1OC (stereo not shown) [Example 262] | 82 |
| CN(C)C(c1cccs1)C1CCC(CCNC(=O)COC2CCN(S(=O)(=O)c3ccccc3)CC2)CC1 (stereo not shown) [Example 230] | 82 |
| CN(C)C(c1cccc(F)c1)C1CCC(CCNC(=O)COC2CCN(S(=O)(=O)c3ccc(Cl)cc3Cl)C2)CC1 (stereo not shown) [Example 259] | 83 |
| CN(C)C(c1cccc(F)c1)C1CCC(NC(=O)COCCN(C)S(=O)(=O)c2c(Cl)cc(Cl)cc2Cl)CC1 (stereo not shown) [Example 208] | 79 |
| COc1ccc(S(=O)(=O)N(C)CCOCC(=O)NCC2CCC(C(c3ccccc3)N(C)C)CC2)cc1 (stereo not shown) [Example 242] | 77 |
